Assay results taken from patent publication US8476197B2, “Aminopropenoates as fungicides” (priority 2009, dated 2013).
Marks after values point to notes of the source that are not given here.

Settings: pH 2.3

| Log P | SMILES |
| --- | --- |
| 2.92 | CCOC(=O)C(C#N)=C(NC(C)c1nccs1)c1cccnc1OCC (racemic) [Compound 148] |

Same assay, conditions: pH 2.7

| Log P | SMILES |
| --- | --- |
| 4.01^[a] | CCOC(=O)C(C#N)=C(NC(C)c1nc(C)c(C)s1)c1nsc(Cl)c1Cl (racemic) [Compound 53] |
| 4.1^[a] | CCOC(=O)C(C#N)=C(NC(C)Cc1c[nH]c2ccccc12)c1nsc(Cl)c1Cl (racemic) [Compound 54] |
| 3.29^[a] | CCOC(=O)C(C#N)=C(NC(C)c1nccs1)c1nsc(Cl)c1Cl (racemic) [Compound 55] |
| 4.9^[a] | CCOC(=O)C(C#N)=C(NC(c1cc2ccccc2s1)C(F)(F)F)c1sccc1Br (racemic) [Compound 129] |
| 4.87^[a] | CCOC(=O)C(C#N)=C(NC(c1cc2ccccc2s1)C(F)(F)F)c1ccsc1Br (racemic) [Compound 130] |
| 3.46^[a] | COC(=O)C(C#N)=C(NC(C)c1nc(C)c(C)s1)c1sc(C)nc1C(F)(F)F (racemic) [Compound 131] |
| 3.6^[a] | COC(=O)C(C#N)=C(NC(C)Cc1c[nH]c2ccccc12)c1sc(C)nc1C(F)(F)F (racemic) [Compound 133] |
| 2.77^[a] | COC(=O)C(C#N)=C(NC(C)c1ccccn1)c1sc(C)nc1C(F)(F)F (racemic) [Compound 135] |
| 2.49^[a] | CCOC(=O)C(C#N)=C(NC(C)c1ccccn1)c1c(C)nn(C)c1Cl (racemic) [Compound 136] |
| 4.46^[a] | CCOC(=O)C(C#N)=C(NC(c1cc2ccccc2s1)C(F)(F)F)c1c(C)nn(C)c1Cl (racemic) [Compound 137] |
| 2.75^[a] | CCOC(=O)C(C#N)=C(NC(C)c1ccccn1)c1cn(C)nc1C(F)(F)F (racemic) [Compound 140] |
| 3.13^[a] | CCOC(=O)C(C#N)=C(NC(C)c1nccs1)c1sc(C)nc1C(F)(F)F (racemic) [Compound 142] |
| 3.83^[a] | CCOC(=O)C(C#N)=C(NC(C)c1nc(C)c(C)s1)c1sc(C)nc1C(F)(F)F (racemic) [Compound 143] |
| 3.85^[a] | CCOC(=O)C(C#N)=C(NC(C)Cc1cc2ccccc2[nH]1)c1sc(C)nc1C(F)(F)F (racemic) [Compound 145] |
| 3.12^[a] | CCOC(=O)C(C#N)=C(NC(C)c1ccccn1)c1sc(C)nc1C(F)(F)F (racemic) [Compound 146] |
| 4.46^[a] | CCOC(=O)C(C#N)=C(NC(c1cc2ccccc2s1)C(F)(F)F)c1cn(C)nc1C(F)(F)F (racemic) [Compound 147] |
| 2.81^[a] | CCOC(=O)C(C#N)=C(NC(C)c1ccccn1)c1c(C(F)F)nn(C)c1Cl (racemic) [Compound 156] |
| 3.75^[a] | CCOC(=O)C(C#N)=C(NC(C)c1nc(C)c(C)s1)c1ccsc1I (racemic) [Compound 157] |
| 3.08^[a] | CCOC(=O)C(C#N)=C(NC(C)c1nccs1)c1ccsc1I (racemic) [Compound 158] |
| 3.05^[a] | CCOC(=O)C(C#N)=C(NC(C)c1ccccn1)c1sccc1Cl (racemic) [Compound 160] |
| 4.89^[a] | CCOC(=O)C(C#N)=C(NC(c1cc2ccccc2s1)C(F)(F)F)c1sccc1Cl (racemic) [Compound 162] |
| 3.03^[a] | CCOC(=O)C(C#N)=C(NC(C)c1ccccn1)c1ccsc1I (racemic) [Compound 163] |
| 3.8^[a] | CCOC(=O)C(C#N)=C(NC(C)Cc1c[nH]c2ccccc12)c1ccsc1I (racemic) [Compound 164] |
| 4.81^[a] | CCOC(=O)C(C#N)=C(NC(c1cc2ccccc2s1)C(F)(F)F)c1ccsc1I (racemic) [Compound 165] |

| Log P | SMILES |
| --- | --- |
| 3.46^[a] | CCOC(=O)C(C#N)=C(NC(C)c1ncc(C)s1)c1sccc1Br (racemic) [Compound 169] |
| 2.8^[a] | COC(=O)C(C#N)=C(NC(C)c1sc(C)nc1C)c1sc(C)nc1C(F)(F)F (racemic) [Compound 179] |
| 3.04^[a] | COC(=O)C(C#N)=C(NC(C)c1nc(C)cs1)c1sc(C)nc1C(F)(F)F (racemic) [Compound 180] |
| 3.09^[a] | COC(=O)C(C#N)=C(NC(C)c1ncc(C)s1)c1sc(C)nc1C(F)(F)F (racemic) [Compound 182] |
| 2.43^[a] | CCOC(=O)C(C#N)=C(NC(C)c1sc(C)nc1C)c1cn(C)nc1C(F)F (racemic) [Compound 187] |
| 2.41^[a] | CCOC(=O)C(C#N)=C(NC(C)c1ccccn1)c1cc(Cl)sc1Cl (racemic) [Compound 222] |
| 2.53^[a] | CCOC(=O)C(C#N)=C(NC(C)c1nccs1)c1ncccc1Br (racemic) [Compound 224] |
| 3.11^[a] | CCOC(=O)C(C#N)=C(NC(C)c1nccs1)c1ncc(Cl)cc1Cl (racemic) [Compound 225] |
| 2.26^[a] | CCOC(=O)C(C#N)=C(NC(C)c1nccs1)c1cn(C)nc1OC (racemic) [Compound 229] |
| 3.37^[a] | CCOC(=O)C(C#N)=C(NC(C)c1nc(C)c(C)s1)c1c(C(F)F)nn(C)c1Cl (racemic) [Compound 235] |
| 3.42^[a] | CCOC(=O)C(C#N)=C(NC(C)Cc1c[nH]c2ccccc12)c1c(C(F)F)nn(C)c1Cl (racemic) [Compound 237] |
| 2.3^[a] | C=Cc1nn(C)cc1C(NC(C)c1nccs1)=C(C#N)C(=O)OCC (racemic) [Compound 238] |
| 3.21^[a] | CCOC(=O)C(C#N)=C(NC(C)c1nccs1)c1nc(SC)ncc1Br (racemic) [Compound 240] |
| 3.99^[a] | CCOC(=O)C(C#N)=C(NC(C)c1cccs1)c1ccsc1Br (racemic) [Compound 250] |
| 2.2[a] | CCOC(=O)C(C#N)=C(NC(C)c1nc(C(C)C)no1)c1cc(Cl)ncc1Cl (racemic) [Compound 253] |
| 3.83^[a] | CCOC(=O)C(C#N)=C(NC(C)c1nc(C(F)(F)F)no1)c1cc(Cl)ncc1Cl (racemic) [Compound 254] |
| 3.76^[a] | CCOC(=O)C(C#N)=C(NC(C)c1nn(C)c(=O)n1C)c1cc(Cl)ncc1Cl (racemic) [Compound 255] |
| 2.88^[a] | CCOC(=O)C(C#N)=C(NC(C)c1nccs1)c1cnccc1Br (racemic) [Compound 257] |
| 2.78^[a] | CCOC(=O)C(C#N)=C(NC(C)c1nccs1)c1cnccc1Cl (racemic) [Compound 258] |
| 2.9^[a] | CCOC(=O)C(C#N)=C(NC(C)c1sc(C)nc1C)c1ccsc1Br (racemic) [Compound 261] |
| 3.31^[a] | CCOC(=O)C(C#N)=C(NC(C)c1nccs1)c1cc(Cl)cc(Cl)n1 (racemic) [Compound 265] |
| 1.2^[a] | CCOC(=O)C(C#N)=C(NC(C)CN1CCCCC1)c1cccnc1Cl (racemic) [Compound 273] |
| 1.3^[a] | CCOC(=O)C(C#N)=C(NC(C)CN1CCOCC1)c1cccnc1Cl (racemic) [Compound 274] |

| SMILES | Log P |
| --- | --- |
| COC(=O)C(C#N)=C(NC(C)Cc1c[nH]c2ccccc12)c1cn(C)nc1C(F)F (racemic) [Compound 57] | 3^[a] |
| COC(=O)C(C#N)=C(NC(C)c1ccccn1)c1cn(C)nc1C(F)F (racemic) [Compound 59] | 2.05^[a] |
| COC(=O)C(C#N)=C(NC(c1cc2ccccc2s1)C(F)(F)F)c1cn(C)nc1C(F)F (racemic) [Compound 60] | 3.83^[a] |
| COC(=O)C(C#N)=C(NC(C)c1nccs1)c1cn(C)nc1C(F)F (racemic) [Compound 61] | 2.13^[a] |
| CCOC(=O)C(C#N)=C(NC(C)c1nccs1)c1cn(C)nc1C(F)(F)F (racemic) [Compound 63] | 2.78^[a] |
| CCOC(=O)C(C#N)=C(NC(C)c1nc(C)cs1)c1sccc1C(F)(F)F (racemic) [Compound 174] | 3.58^[a] |
| CCOC(=O)C(C#N)=C(NC(C)c1nccs1)c1cc(Cl)sc1Cl (racemic) [Compound 221] | 3.65^[a] |
| CCOC(=O)C(C#N)=C(NC(C)c1nccs1)c1cnc(Cl)cc1Cl (racemic) [Compound 223] | 3^[a] |
| CCOC(=O)C(C#N)=C(NC(C)c1nccs1)c1cccnc1C(F)(F)F (racemic) [Compound 232] | 2.9^[a] |
| CCOC(=O)C(C#N)=C(NC(C)c1ccccn1)c1cccnc1C(F)(F)F (racemic) [Compound 233] | 2.88^[a] |
| CCOC(=O)C(C#N)=C(NC(C)c1nccs1)c1c(C(F)F)nn(C)c1Cl (racemic) [Compound 234] | 2.77^[a] |
| CCOC(=O)C(C#N)=C(NC(C)c1nccs1)c1sc(Cl)nc1Cl (racemic) [Compound 242] | 3.27^[a] |
| CCOC(=O)C(C#N)=C(NC(C)c1nccs1)c1cc(Cl)ncc1Cl (racemic) [Compound 252] | 3.15^[a] |
| CCOC(=O)C(C#N)=C(NC(C)c1nccs1)c1cnccc1C(F)(F)F (racemic) [Compound 256] | 2.7^[a] |
| CCOC(=O)C(C#N)=C(NC(C)c1ccccn1)c1ccncc1Cl (racemic) [Compound 260] | 2.54^[a] |
| CCOC(=O)C(C#N)=C(NC(C)c1ccn(C)n1)c1cccnc1C(F)F (racemic) [Compound 263] | 2.18^[a] |
| CCOC(=O)C(C#N)=C(NC(C)c1ccccn1)c1cccnc1C(F)F (racemic) [Compound 264] | 2.46^[a] |
| CCOC(=O)C(C#N)=C(NC(C)c1nccs1)c1cccnc1C(F)F (racemic) [Compound 266] | 2.39^[a] |
| CCOC(=O)C(C#N)=C(NC(C)c1ccccn1)c1cn(C)cc1C(F)(F)F (racemic) [Compound 270] | 2.92^[a] |
| CCOC(=O)C(C#N)=C(NC(C)c1nccs1)c1cn(C)cc1C(F)(F)F (racemic) [Compound 271] | 2.97^[a] |

Same assay, conditions: pH 7.5

| Log P | SMILES |
| --- | --- |
| 3.32 | CCOC(=O)C(C#N)=C(NC(C)c1ncc(Br)s1)c1cccnc1Cl (racemic) [Compound 128] |
| 2.89 | CCOC(=O)C(C#N)=C(NC(C)c1nccs1)c1cccnc1OCC (racemic) [Compound 148] |
| 2.17 | CCOC(=O)C(C#N)=C(NC(C)c1nccs1)c1cccnc1C (racemic) [Compound 152] |
| 1.77 | CCOC(=O)C(C#N)=C(NC1CCOC1=O)c1cccnc1Cl (racemic) [Compound 231] |

| SMILES | Log P |
| --- | --- |
| C#CCOC(=O)C(C#N)=C(NC(C)c1nccs1)c1cccnc1Cl (racemic) [Compound 267] | 2.26 |
| CC(NC(=C(C#N)C(=O)OC1CCC1)c1cccnc1Cl)c1nccs1 (racemic) [Compound 268] | 2.88 |
| CNC(=O)C(C#N)=C(NC(C)c1nccs1)c1cccnc1Cl (racemic) [Compound 269] | 1.69 |
